According to patent US11467151B1, “Phosphorescence oxygen analyzer and uses thereof” (priority 2021, dated 2022):

Test system: striatal tissue
Experiment: Striatal cellular respiration (oxygen consumption of striatal fragments, phosphorescence oxygen analyzer)
Format: cell-based, C57BL6 male mice
Conditions: for effect on striatal cellular respiration (in words): in vitro, viable striatal tissue; for time over which the inhibitory effects remained relatively stable: with glucose, repeated additions of toxin (FIG. 3B, FIG. 4B)
Experimental: C57BL6 male mice (13 weeks old, about 20 g weight) were housed at 22° C. with 60% humidity and 12-h light-dark cycles. Rodent chow and filtered water were provided ad libitum. The study was approved from the UAE University Animal Research Ethics Committee (Ref. ERA-20196026). Diethyl ether was used for anesthesia.
The studied mice were not treated in any way prior to striatal tissue collection. The skin and skull were cut to expose the whole brain, which was then rapidly removed and placed in a freshly prepared Pd phosphor solution: Phosphate-buffered saline (PBS: 137 mM NaCl, 2.7 mM KCl, 4.3 mM Na2HPO4, and 1.4 mM KH2PO4, pH 7.4), 3.0 μM Pd phosphor, 0.5% fat-free albumin, with and without 5.0 mM glucose. The brain region that contained the striatum was dissected. The specimen weight was determined prior to placing it in the oxygen measuring vial that contained 2.0 mL of the Pd phosphor solution. A small portion of the specimen was stored at −80° C. for Western blot analysis.
For oxygen analysis, our previously described phosphorescence oxygen analyzer was used to monitor oxygen consumption at 25° C. in the studied striatal fragments. In reaction vials sealed from air, oxygen concentration decreased linearly with time (zero-order kinetics); the rate (k, in μM O2 min^−1) was thus the negative of d [O21/dt. The calibration reactions utilized glucose oxidase (D-glucose+O2→D-glucono-δ-lactone+H2O2) and […]. Dissolved oxygen in the solution was also depleted by the addition of glucose oxidase plus […]. Potassium cyanide (KCN, added from a stock prepared in dH2O immediately before use) inhibited respiration, confirming oxygen was consumed in cytochrome oxidase.

| Structure (SMILES) | rate of respiration (k) in the presence of rotenone (10 μM rotenone, Pd phosphor solution with 5.0 mM glucose, 25° C., mean±SD, n=5, without toxin 0.141 (n=7), P=0.073) [μM O2 min^−1 mg^−1] | effect on striatal cellular respiration (in words) | time over which the inhibitory effects remained relatively stable | rate of respiration (k) in the presence of MPP+ (1.25 mM MPP+, Pd phosphor solution with 5.0 mM glucose, 25° C., n=3, p=0.048) [μM O2 min^−1 mg^−1] |
| --- | --- | --- | --- | --- |
| C=C(C)[C@H]1Cc2c(ccc3c2O[C@@H]2COc4cc(OC)c(OC)cc4[C@@H]2C3=O)O1 [rotenone, Rotenone] | 0.092±0.022 | inhibited | about 100 min |  |
| C[n+]1ccc(-c2ccccc2)cc1.[I-] [MPP+, 1-Methyl-4-phenylpyridinium iodide] |  | inhibited | about 300 min | 0.077±0.006 |
